Series [1] in a line: Solubility in D2O by 1H NMR (Me2SO2 internal standard). To be noted: for Solubility: 21 °C. Type of series: physicochemical. As for the experimental part: (§1) • (a) Solubility in D2O. A suspension of the selected diiron compound (3–5 mg) in a D2O solution (ca. 1 mL) containing Me2SO2 (3.36 × 10^−3 M) as internal standard was vigorously stirred at 21 °C for 1.5 h. The resulting saturated solution was filtered over celite, transferred into an NMR tube and then analyzed by ^1H NMR spectroscopy (delay time = 3 s; number of scans = 20). The concentration (solubility) was calculated by the relative integral (related to Cp and/or NMe signals) with respect to Me2SO2 (δ = 3.14 ppm). • (b) Stability in DMSO-d6/D2O solution. The selected diiron compound (ca. 4 mg) was added of 1 mL of D2O (3a,c) or DMSO-d6/D2O (2:1 v/v) mixture (2a,c, 3b, 4a–c, 5a–c, 6a–c, 7), containing Me2SO2 (3.36 × 10^−3 M). The resulting mixture was stirred for 30 min and then filtered over celite; the filtrated solution was transferred into an NMR tube. The sample was analyzed by ^1H NMR (time = 0) and then heated at 37 °C for 72 h. After cooling to room temperature, the solution was separated from a small amount of solid by filtration over celite, and the new ^1H NMR spectrum was recorded (delay time = 3 s; number of scans = 20). In every case, no newly formed organometallic species was detected. The amount of starting material in solution (% with respect to the initial spectrum) was calculated by the relative integral (vs. Cp and/or NMe signals) with respect to Me2SO2 as internal standard.

Series [2] can be described thus: Stability in DMSO-d6/D2O or D2O solution at 37 °C for 72 h (1H NMR). It is filed as physicochemical. To be noted: DMSO-d6/D2O (2:1 v/v), 72 h at 37 °C. As for the experimental part:
as §1

Series [3] can be described thus: Octanol–water partition coefficient (shake-flask, UV–Vis). It is filed as physicochemical. To be noted: 21 °C. The method, then:
• (c) Octanol–water partition coefficients (Log Pow). Partition coefficients (Pow; IUPAC: KD partition constant), defined as Pow = corg/caq, where corg and caq are molar concentrations of the selected compound in the organic and aqueous phase, respectively, were determined by the shake-flask method and UV–Vis measurements. Deionized water and 1-octanol were vigorously stirred for 24 h to enable saturation of both phases, then separated by centrifugation. A stock solution of the selected diiron compound (ca. 2 mg; 2a–c, 3b, 4a–c, 5a, 5c, 6b,c, 7) was prepared by first adding acetone (50 μL, to help solubilization), followed by water-saturated octanol (2.5 mL). The solution was diluted with water-saturated octanol (ca. 1:3 v/v ratio, cFe2 ≈ 10^−4 M, so that 1.5 ≤ A ≤ 2.0 at λmax) and the UV–Vis spectrum was recorded (A^0org). An aliquot of the solution (Vorg = 1.2 mL) was transferred into a test tube and octanol-saturated water (Vorg = Vaq = 1.2 mL) was added. The mixture was vigorously stirred for 15 min at 21 °C and then centrifuged (5000 rpm, 10 min). The UV–Vis spectrum of the organic phase was recorded (A^forg) and the partition coefficient was calculated as Pow = A^forg/(A^0org − A^forg), where A^0org and A^forg are the absorbance in the organic phase before and after partition with the aqueous phase, respectively. An inverse procedure was followed for 3a, 3c, 5b and 6a, starting from a solution of the compound in octanol-saturated water. The partition coefficient was calculated as Pow = (A^0aq − A^faq)/A^faq where A^0aq and A^faq are the absorbance in the aqueous phase before and after partition with the organic phase, respectively. The wavelength of the maximum absorption of each compound (ca. 300 nm) was used for UV–Vis quantitation. The procedure was repeated three times for each sample (from the same stock solution); results are given as mean ± standard deviation.

Series [4] concerns human ovarian carcinoma cisplatin-sensitive A2780. The series can be described thus: Cytotoxicity, WST-1 cell viability assay, A2780. It is filed as cell-based. To be noted: for IC50: 72 h exposure; for Selectivity index (S.I.): ratio between IC50 for Balb/3T3 and IC50 for A2780. As for the experimental part:
(§2) In vitro cytotoxicity investigations were carried out by using human ovarian carcinoma cisplatin-sensitive A2780 (ECACC93112519), human ovarian carcinoma cisplatin-resistant A2780cisR (ECACC 93112517) and mouse embryo fibroblasts Balb/3T3 clone A31 (ATCC CCL-163) cell lines. A2780 and A2780cisR were purchased from the European Collection of Authenticated Cell Cultures (ECACC), and Balb/3T3 clone A31 cell line from the American Type Culture Collection (ATCC).
(§3) A2780 and A2780cisR cells were routinely cultured in RPMI 1640 (Merck) containing 2 mM of L-glutamine (Merck), 1% of penicillin/streptomycin solution (Merck—10 000 U mL^−1: 10 mg mL^−1), 10% of fetal bovine serum (Merck—FBS) and antimycotic (InvivoGen, USA), and Balb/3T3 clone A31 in Dulbecco’s modified Eagle medium (Merck—DMEM) supplemented with 4 mM of L-glutamine, 1% of penicillin/streptomycin solution, 10% of calf serum (Merck) and antimycotic. […] The cultures were maintained at 37 °C and in a 5% CO2-enriched atmosphere.
(§4) A2780, A2780cisR and Balb/3T3 clone A31 cells were seeded in 96-well tissue culture polystyrene plates at a concentration of 3 × 10^3, 6 × 10^3 and 1 × 10^3 cells per well, respectively. After overnight incubation, the cells were treated with different concentrations (0–100 µM) of the selected compounds for 72 h at 37 °C in a 5% atmosphere of CO2. Stock solutions of compounds were prepared in DMSO and sequentially diluted in medium (final DMSO concentration of 0.5%). […] At the end of the incubation time, cell viability was assessed by means of WST-1 tetrazolium salt reagent (Roche). Briefly, cells were incubated for 4 h with the tetrazolium salt reagent diluted 1:10, at 37 °C and 5% CO2. Measurements of formazan dye absorbance, which directly correlates with the number of viable cells, were carried out with a micro-plate reader (Biorad) at 450 nm, using 655 nm as reference wavelength. The 50% inhibitory concentration (IC50) refers to compound concentration at which 50% of cell death is observed with respect to the control. For each tested compound, assay was performed on triplicate. The concentration effect curves were generated by nonlinear regression curves (GraphPad Prism Software, 2021) and the data reported as mean ± standard deviation.

Series [5] relates to mouse embryo fibroblasts Balb/3T3 clone A31. The series is described as follows: Cytotoxicity, WST-1 cell viability assay, Balb/3T3 clone A31. To be noted: 72 h exposure. It is filed as cell-based. The method, then: as §2, §3, §4

Where “and” joins values, the source holds several entries; their conditions need not be identical. Equal entries are not always repeated. Some results are limits rather than exact numbers.

Turning to “[Fe2Cp2(CO)(μ-CO){μ-η^1:η^3-C^3(Me)C^2(Me)C^1N(CH2Ph)2}]CF3SO3 [Compound 2c]”, the “Solubility in D2O (in words)” value in series [1] is reported as “almost insoluble in D2O”. Besides, in series [2], the “Stability % (residual % of starting material)” value is 87%. The “Log Pow” value in series [3] is 0.56 ± 0.08. In series [4], inhibition was half-maximal at 1.91 ± 0.15 µM (IC50) and the “Selectivity index (S.I.)” value is 9. In series [5], half-maximal inhibition (IC50) was put at 18 ± 3 µM.
Regarding “[Fe2Cp2(CO)(μ-CO){μ-η^1:η^3-C^3(Me)C^2(Me)C^1NMe(2-naphthyl)}]CF3SO3 [Compound 7]”, in series [1], the “Solubility in D2O (in words)” value was “almost insoluble in D2O”. In series [2], the “Stability % (residual % of starting material)” value stood at 66%. For the same substance, the “Log Pow” value in series [3] stood at 0.38 ± 0.02. The IC50 was determined as 2.2 ± 0.2 µM in series [4] and 48 ± 3 µM in series [5]. In addition, the “Selectivity index (S.I.)” value in series [4] is on record as 22.
On to “[Fe2Cp2(CO)(μ-CO){μ-η^1:η^3-C^3(Me)C^2(Me)C^1NMe(4-C6H4OMe)}]CF3SO3 [Compound 6c]”, for which, in series [1], the Solubility was 1.06 × 10^−3 mol·L^−1 and 0.69 g·L^−1. In addition, the “Stability % (residual % of starting material)” value in series [2] turned out to be 86%. Besides, the “Log Pow” value in series [3] is −0.21 ± 0.01. Also, in series [4], the IC50 came to 3.8 ± 0.4 µM and the “Selectivity index (S.I.)” value is reported as above 26. In series [5], this substance yielded an IC50 above 100 µM.
As for “[Fe2Cp2(CO)(μ-CO){μ-η^1:η^3-C^3(Me)C^2(Me)C^1NMe(CH2Ph)}]CF3SO3 [Compound 5b]”, in series [1], the Solubility is 1.52 × 10^−3 mol·L^−1 and 0.96 g·L^−1. Moreover, in series [2], the “Stability % (residual % of starting material)” value was determined as 90%. Moreover, in series [3], the “Log Pow” value is reported as −0.43 ± 0.01. For the same substance, the values for the 50% inhibitory concentration (IC50) in series [4] and in series [5] were 5.1 ± 0.3 µM and above 100 µM, respectively. Further, the “Selectivity index (S.I.)” value in series [4] was above 19.
For the substance “[Fe2Cp2(CO)(μ-CO){μ-η^1:η^3-C^3(Me)C^2(Me)C^1NMe(Cy)}]CF3SO3 [Compound 4c]”, the Solubility in series [1] is 2.63 × 10^−3 mol·L^−1 and 1.64 g·L^−1. Further, the “Stability % (residual % of starting material)” value in series [2] worked out at 95%. Moreover, the “Log Pow” value in series [3] is reported as −0.17 ± 0.01. For the same substance, the IC50 in series [4] was determined as 1.8 ± 0.2 µM; in series [5], 94 ± 16 µM. Moreover, in series [4], the “Selectivity index (S.I.)” value is listed as 52.
“[Fe2Cp2(CO)(μ-CO){μ-η^1:η^3-C^3(Me)C^2HC^1NMe(Cy)}]CF3SO3 [Compound 4a]”: the Solubility in series [1] was 3.49 × 10^−3 mol·L^−1 and 2.13 g·L^−1. The “Stability % (residual % of starting material)” value in series [2] is listed as 95%. In addition, in series [3], the “Log Pow” value is −0.29 ± 0.03. Also, the IC50 in series [4] is 3.3 ± 0.4 µM; in series [5], above 100 µM. The “Selectivity index (S.I.)” value in series [4] is listed as above 30.
For the substance “[Fe2Cp2(CO)(μ-CO){μ-η^1:η^3-C^3(Ph)C^2HC^1NMe(4-C6H4OMe)}]CF3SO3 [Compound 6b]”, in series [2], the “Stability % (residual % of starting material)” value was 76%. The “Log Pow” value in series [3] was determined as 0.37 ± 0.04. Further, in series [4], the IC50 was found to be 3.8 ± 0.4 µM and the “Selectivity index (S.I.)” value was found to be 10. The substance also showed an IC50 in series [5] of 39 ± 3 µM.
Regarding “[Fe2Cp2(CO)(μ-CO){μ-η^1:η^3-C^3(Ph)C^2HC^1NMe(CH2CH = CH2)}]CF3SO3 [Compound 3b]”, the Solubility in series [1] was 2.34 × 10^−3 mol·L^−1 and 1.48 g·L^−1. In addition, the “Stability % (residual % of starting material)” value in series [2] turned out to be 68%. Further, the “Log Pow” value in series [3] was −0.09 ± 0.01. Moreover, in series [4], the half-inhibitory concentration (IC50) stood at 6 ± 0.8 µM and the “Selectivity index (S.I.)” value was above 16. The IC50 in series [5] was above 100 µM.

The values above are taken from PMC8398472, “Anticancer Diiron Vinyliminium Complexes: A Structure–Activity Relationship Study” (Pharmaceutics, 2021).
